How the values were obtained:
Format in all cases: biochemical
[1] = biological target: T1, human B-Raf protein kinase (Homo sapiens, UniProt P15056); assay: In vitro B-Raf/Mek1 composite kinase assay; conditions: recombinant GST-tagged human B-Raf (Δ1-415) with inactive Mek1, 2 μM ATP
T1 construct: GST (N); purchased Upstate Inc. 14-530 (B-Raf); 14-420 (Mek1)
Method in brief: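 Luminescent ATP-depletion assay using recombinant N-terminal GST-tagged human B-Raf (Δ1-415, 1 ng/well) in MOPS pH 7.2 buffer with 10 mM MgCl2. Compounds were preincubated 15 min at about 22° C, then the reaction ran 2 h before PKLight readout. Efficacy is expressed as percentage of positive-control (Bay 43-9006) activity.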

VEGFR2 kinase = biological target: T2, VEGFR2 kinase (Homo sapiens, UniProt P35968); assay: In vitro VEGFR2 kinase assay; conditions: ADP Quest assay, poly Glu:Tyr substrate, 60 μM ATP
T2 construct: purchased Invitrogen Inc PV3660
Method in brief: (§1)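 Compound was preincubated 10 min at ~22 °C with 20 ng VEGFR2 or 25 ng PDGFRβ, then poly Glu:Tyr (4:1) substrate (0.25 μg) with 60 μM ATP (in added buffer) was reacted 2 h at 30 °C. ADP Quest resorufin fluorescence was read (ex 530/em 580) after 30 min. Efficacy is expressed as percent of positive-control (Bay 43-9006) activity, with DMSO as negative control.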

PDGFRβ kinase = biological target: T3, PDGFRβ kinase (Homo sapiens, UniProt P09619); assay: In vitro PDGFRβ kinase assay; conditions: ADP Quest assay, poly Glu:Tyr substrate, 60 μM ATP
T3 construct: purchased Invitrogen Inc. P3082
Method in brief: as §1

Measured: IC50

T3 sequence (P09619 33-1106): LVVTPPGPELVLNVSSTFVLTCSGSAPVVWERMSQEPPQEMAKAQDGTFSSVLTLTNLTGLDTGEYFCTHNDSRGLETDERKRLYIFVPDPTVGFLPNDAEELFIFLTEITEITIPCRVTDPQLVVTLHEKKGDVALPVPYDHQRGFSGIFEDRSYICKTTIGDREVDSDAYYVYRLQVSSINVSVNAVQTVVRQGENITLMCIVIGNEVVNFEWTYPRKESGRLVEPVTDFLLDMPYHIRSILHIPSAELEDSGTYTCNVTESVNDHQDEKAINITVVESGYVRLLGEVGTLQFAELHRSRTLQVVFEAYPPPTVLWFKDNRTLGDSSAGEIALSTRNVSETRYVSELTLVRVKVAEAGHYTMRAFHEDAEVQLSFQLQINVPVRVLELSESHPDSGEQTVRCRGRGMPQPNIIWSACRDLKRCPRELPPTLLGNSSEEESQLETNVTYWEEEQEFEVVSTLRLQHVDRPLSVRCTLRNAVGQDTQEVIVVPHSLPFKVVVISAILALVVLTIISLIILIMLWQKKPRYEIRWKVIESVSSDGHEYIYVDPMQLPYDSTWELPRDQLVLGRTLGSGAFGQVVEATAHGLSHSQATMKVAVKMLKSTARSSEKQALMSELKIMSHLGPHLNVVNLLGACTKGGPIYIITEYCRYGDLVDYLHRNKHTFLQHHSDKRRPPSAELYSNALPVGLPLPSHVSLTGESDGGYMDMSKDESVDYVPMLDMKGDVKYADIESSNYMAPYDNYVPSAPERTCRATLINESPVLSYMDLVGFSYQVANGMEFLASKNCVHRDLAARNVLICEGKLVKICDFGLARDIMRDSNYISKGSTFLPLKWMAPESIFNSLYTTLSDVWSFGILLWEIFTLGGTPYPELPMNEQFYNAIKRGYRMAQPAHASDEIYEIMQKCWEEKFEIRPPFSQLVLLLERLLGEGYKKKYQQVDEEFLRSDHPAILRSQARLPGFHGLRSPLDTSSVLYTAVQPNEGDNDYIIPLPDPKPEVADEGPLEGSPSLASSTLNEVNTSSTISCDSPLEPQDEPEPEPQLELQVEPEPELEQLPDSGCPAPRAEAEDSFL
T1 sequence (P15056 416-766): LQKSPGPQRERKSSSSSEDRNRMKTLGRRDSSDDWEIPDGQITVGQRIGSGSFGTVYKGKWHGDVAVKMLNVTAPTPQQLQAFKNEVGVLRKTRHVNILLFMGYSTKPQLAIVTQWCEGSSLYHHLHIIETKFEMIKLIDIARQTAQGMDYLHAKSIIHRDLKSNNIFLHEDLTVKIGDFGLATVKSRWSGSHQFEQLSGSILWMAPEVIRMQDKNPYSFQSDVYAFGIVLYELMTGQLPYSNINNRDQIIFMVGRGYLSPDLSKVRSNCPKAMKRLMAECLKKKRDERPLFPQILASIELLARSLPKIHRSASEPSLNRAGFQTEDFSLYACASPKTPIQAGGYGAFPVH
T2 sequence (P35968 20-1356): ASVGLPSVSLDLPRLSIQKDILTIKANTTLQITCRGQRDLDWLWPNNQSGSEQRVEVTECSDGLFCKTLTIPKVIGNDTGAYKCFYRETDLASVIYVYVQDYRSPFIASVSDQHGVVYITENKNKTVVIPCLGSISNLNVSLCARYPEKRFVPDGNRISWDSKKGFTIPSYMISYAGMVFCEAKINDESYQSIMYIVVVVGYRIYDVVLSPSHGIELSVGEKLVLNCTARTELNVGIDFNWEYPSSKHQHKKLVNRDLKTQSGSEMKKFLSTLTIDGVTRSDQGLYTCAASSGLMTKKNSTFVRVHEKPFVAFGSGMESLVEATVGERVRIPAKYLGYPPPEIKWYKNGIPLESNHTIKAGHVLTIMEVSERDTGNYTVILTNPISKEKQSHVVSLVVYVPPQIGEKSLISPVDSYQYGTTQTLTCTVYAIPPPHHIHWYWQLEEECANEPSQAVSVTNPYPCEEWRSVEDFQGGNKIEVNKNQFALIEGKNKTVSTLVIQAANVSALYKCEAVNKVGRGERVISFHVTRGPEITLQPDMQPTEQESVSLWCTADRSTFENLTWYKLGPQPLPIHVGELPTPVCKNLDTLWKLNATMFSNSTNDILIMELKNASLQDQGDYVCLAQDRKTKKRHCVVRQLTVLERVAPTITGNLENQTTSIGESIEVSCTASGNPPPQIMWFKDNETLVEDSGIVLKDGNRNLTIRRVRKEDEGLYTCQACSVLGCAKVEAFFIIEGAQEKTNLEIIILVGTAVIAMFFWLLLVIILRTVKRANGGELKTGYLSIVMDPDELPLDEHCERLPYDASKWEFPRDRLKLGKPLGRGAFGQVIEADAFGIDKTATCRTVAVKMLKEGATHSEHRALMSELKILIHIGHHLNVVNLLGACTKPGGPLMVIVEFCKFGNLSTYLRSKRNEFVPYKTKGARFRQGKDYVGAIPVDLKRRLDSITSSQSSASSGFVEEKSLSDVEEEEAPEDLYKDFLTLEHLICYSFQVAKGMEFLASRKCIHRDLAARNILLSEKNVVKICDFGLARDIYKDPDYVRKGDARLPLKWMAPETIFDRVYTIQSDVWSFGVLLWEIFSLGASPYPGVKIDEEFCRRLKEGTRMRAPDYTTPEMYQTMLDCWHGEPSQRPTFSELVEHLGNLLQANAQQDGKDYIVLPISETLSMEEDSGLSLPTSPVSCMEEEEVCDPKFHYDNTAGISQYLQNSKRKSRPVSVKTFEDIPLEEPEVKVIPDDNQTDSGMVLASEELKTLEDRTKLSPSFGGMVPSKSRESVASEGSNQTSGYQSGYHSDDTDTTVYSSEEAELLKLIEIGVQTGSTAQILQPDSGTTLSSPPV

Cn1cc(-c2nccc(Oc3ccc(F)c(NC(=O)Nc4ccc(Cl)c(C(F)(F)F)c4)c3)n2)cn1 [Example 78, 1-(4-Chloro-3-(trifluoromethyl)phenyl)-3-(2-fluoro-5-(2-(1-methyl-1H-pyrazol-4-yl)pyrimidin-4-yloxy)phenyl)urea]
≤ 10 µM: all assays above

Cn1cc(-c2nccc(Oc3cccc(NC(=O)Nc4ccc(OC(F)(F)F)cc4)c3)n2)cn1 [Example 79, 1-(3-(2-(1-Methyl-1H-pyrazol-4-yl)pyrimidin-4-yloxy)phenyl)-3-(4-(trifluoromethoxy)phenyl)urea]
≤ 10 µM: all assays above

Cn1cc(-c2nccc(Oc3cccc(NC(=O)Nc4ccc(C(F)(F)F)cc4)c3)n2)cn1 [Example 80, 1-(3-(2-(1-Methyl-1H-pyrazol-4-yl)pyrimidin-4-yloxy)phenyl)-3-(4-(trifluoromethyl)phenyl)urea]
≤ 10 µM: all assays above

CCOC(=O)c1coc(-c2cc(Oc3cccc(NC(=O)Nc4ccc(Cl)c(C(F)(F)F)c4)c3)ncn2)n1 [Example 81, Ethyl 2-(6-(3-(3-(4-chloro-3-(trifluoromethyl)phenyl)ureido)phenoxy)pyrimidin-4-yl)oxazole-4-carboxylate]
≤ 10 µM: all assays above

NC(=O)c1coc(-c2cc(Oc3cccc(NC(=O)Nc4ccc(Cl)c(C(F)(F)F)c4)c3)ncn2)n1 [Example 82, 2-(6-(3-(3-(4-Chloro-3-(trifluoromethyl)phenyl)ureido)phenoxy)pyrimidin-4-yl)oxazole-4-carboxamide]
≤ 10 µM: all assays above

Cn1cc(-c2nccc(Oc3cccc(NC(=O)Nc4cccc(OC(F)(F)F)c4)c3)n2)cn1 [Example 83, 1-(3-(2-(1-Methyl-1H-pyrazol-4-yl)pyrimidin-4-yloxy)phenyl)-3-(3-(trifluoromethoxy)phenyl)urea]
≤ 10 µM: all assays above

Cn1cc(-c2nccc(Oc3cccc(NC(=O)Nc4cc(C(F)(F)F)cc(C(F)(F)F)c4)c3)n2)cn1 [Example 84, 1-(3,5-Bis(trifluoromethyl)phenyl)-3-(3-(2-(1-methyl-1H-pyrazol-4-yl)pyrimidin-4-yloxy)phenyl)urea]
≤ 10 µM: all assays above

O=C(Nc1cccc(Oc2cc(-c3ncc[nH]3)ncn2)c1)Nc1ccc(Cl)c(C(F)(F)F)c1 [Example 85, 1-(3-(6-(1H-Imidazol-2-yl)pyrimidin-4-yloxy)phenyl)-3-(4-chloro-3-(trifluoromethyl)phenyl)urea]
≤ 10 µM: all assays above

C#Cc1cccc(NC(=O)Nc2cccc(Oc3cc(-c4cnn(C)c4)ncn3)c2)c1 [Example 86, 1-(3-Ethynylphenyl)-3-(3-(6-(1-methyl-1H-pyrazol-4-yl)pyrimidin-4-yloxy)phenyl)urea]
≤ 10 µM: all assays above

Cn1cc(-c2nccc(Oc3ccc(NC(=O)Nc4ccc(Cl)c(C(F)(F)F)c4)c(F)c3)n2)cn1 [Example 88, 1-(4-Chloro-3-(trifluoromethyl)phenyl)-3-(2-fluoro-4-(2-(1-methyl-1H-pyrazol-4-yl)pyrimidin-4-yloxy)phenyl)urea]
≤ 10 µM: all assays above

O=C(Nc1ccc(C(F)(F)F)cc1)Nc1cccc(Oc2cc(-c3nnco3)ncn2)c1 [Example 89, 1-(3-(6-(1,3,4-Oxadiazol-2-yl)pyrimidin-4-yloxy)phenyl)-3-(4-(trifluoromethyl)phenyl)urea]
≤ 10 µM: all assays above

Cn1cc(-c2cc(Oc3ccc(F)c(NC(=O)Nc4ccc(C(F)(F)F)cc4F)c3)ncn2)cn1 [Example 90, 1-(2-Fluoro-4-(trifluoromethyl)phenyl)-3-(2-fluoro-5-(6-(1-methyl-1H-pyrazol-4-yl)pyrimidin-4-yloxy)phenyl)urea]
≤ 10 µM: all assays above

Cn1cc(-c2cc(Oc3cccc(NC(=O)Nc4ccc(C(F)(F)F)cc4F)c3)ncn2)cn1 [Example 91, 1-(2-Fluoro-4-(trifluoromethyl)phenyl)-3-(3-(6-(1-methyl-1H-pyrazol-4-yl)pyrimidin-4-yloxy)phenyl)urea]
≤ 10 µM: all assays above

Cn1cc(-c2cc(Oc3ccc(NC(=O)Nc4ccc(Cl)c(C(F)(F)F)c4)c(F)c3)ncn2)cn1 [Example 92, 1-(4-Chloro-3-(trifluoromethyl)phenyl)-3-(2-fluoro-4-(6-(1-methyl-1H-pyrazol-4-yl)pyrimidin-4-yloxy)phenyl)urea]
≤ 10 µM: all assays above

Cn1cc(-c2nccc(Oc3ccc(NC(=O)Nc4cccc(C(F)(F)F)c4)c(F)c3)n2)cn1 [Example 93, 1-(2-Fluoro-4-(2-(1-methyl-1H-pyrazol-4-yl)pyrimidin-4-yloxy)phenyl)-3-(3-(trifluoromethyl)phenyl)urea]
≤ 10 µM: all assays above

COc1ccc(C(F)(F)F)cc1NC(=O)Nc1cccc(Oc2cc(-c3cnn(C)c3)ncn2)c1 [Example 94, 1-(2-Methoxy-5-(trifluoromethyl)phenyl)-3-(3-(6-(1-methyl-1H-pyrazol-4-yl)pyrimidin-4-yloxy)phenyl)urea]
≤ 10 µM: all assays above

COc1ccc(C(F)(F)F)cc1NC(=O)Nc1cc(Oc2cc(-c3cnn(C)c3)ncn2)ccc1F [Example 95, 1-(2-Fluoro-5-(6-(1-methyl-1H-pyrazol-4-yl)pyrimidin-4-yloxy)phenyl)-3-(2-methoxy-5-(trifluoromethyl)phenyl)urea]
≤ 10 µM: all assays above

Cn1cc(-c2cc(Oc3cccc(NC(=O)Nc4ccc(C(F)(F)F)cc4Cl)c3)ncn2)cn1 [Example 96, 1-(2-Chloro-4-(trifluoromethyl)phenyl)-3-(3-(6-(1-methyl-1H-pyrazol-4-yl)pyrimidin-4-yloxy)phenyl)urea]
≤ 10 µM: all assays above

Cn1cc(-c2cc(Oc3ccc(F)c(NC(=O)Nc4ccc(C(F)(F)F)cc4Cl)c3)ncn2)cn1 [Example 97, 1-(2-Chloro-4-(trifluoromethyl)phenyl)-3-(2-fluoro-5-(6-(1-methyl-1H-pyrazol-4-yl)pyrimidin-4-yloxy)phenyl)urea]
≤ 10 µM: all assays above
